Where two headings read alike, the source gives them in different places.
Legend:
OscobB [1] = target: T1, OscobB (Oryza sativa, UniProt A2XBC4); test: dot blot deacetylation assay; assay type: biochemical
T1 construct: gene OsI_09569; cobB-like portion 269-501 of OsI_09569, untagged, modified pET28a (insert 711 bp), E. coli BL21(DE3), ion exchange; 25-28 kDa monomer
T1 sequence (A2XBC4 269-501): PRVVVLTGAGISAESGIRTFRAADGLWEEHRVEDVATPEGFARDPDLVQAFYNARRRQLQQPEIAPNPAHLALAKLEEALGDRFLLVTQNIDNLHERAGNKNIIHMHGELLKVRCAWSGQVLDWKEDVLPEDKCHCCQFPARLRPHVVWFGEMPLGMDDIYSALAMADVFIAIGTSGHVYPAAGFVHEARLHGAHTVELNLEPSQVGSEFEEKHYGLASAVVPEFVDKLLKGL

OscobB [2] = target: T1, OscobB; test: dot blot deacetylation assay; assay type: biochemical; remark: listed apart in the source
OscobB [3] = target: T1, OscobB; test: intrinsic tryptophan fluorescence quenching; assay type: binding

NC(=O)c1cccnc1 [NAM]
IC50 (OscobB [1]): 253 ± 45 µM

Nc1ncnc2c1ncn2[C@@H]1O[C@H](COP(=O)(O)OP(=O)(O)OC[C@H]2OC(O)[C@H](O)[C@@H]2O)[C@@H](O)[C@H]1O (stereo partly shown) [ADP-ribose]
IC50 (OscobB [1]; NAD+, analog of product O-acetyl-ADP-ribose): 410 µM

Oc1ccc(/C=C/c2cc(O)cc(O)c2)cc1 [resveratrol]
EC50 (OscobB [2]): 51 µM

NC(=O)c1ccc[n+]([C@@H]2O[C@H](COP(=O)(O)OP(=O)(O)OC[C@H]3O[C@@H](n4cnc5c(N)ncnc54)[C@H](O)[C@@H]3O)[C@@H](O)[C@H]2O)c1 [NAD^+]
Kd (OscobB [3]): 30 ± 2 µM

— paper doi:10.1101/2022.04.17.488584v1, “A cobB like protein in Oryza sativa indica regulates the mitochondrial machinery under stress conditions” (biorxiv, 2022)
